Source: US20240043427A1 (Gilead Sciences, Inc., priority 2020, published 2024)

How the values were obtained:
CD73 [1] = target: T1, CD73 (Homo sapiens (Human), UniProt P21589); assay type: biochemical; conditions: 1 mM NaH2PO4 in enzyme buffer, CD73 0.3 nM, AMP 15 uM
Protocol: Compound serial dilutions were pre-spotted into Thermo Nunc assay plate. 50 uL CD73 enzyme buffer (CD73 purchased from R&D system=0.6 nM, 25 mM Tris, pH 7.4, 5 mM MgCl2, 1 mM NaH2PO4) was added into the assay plate and incubate for 15 mins. […] After incubation for 60 mins, the supernatant (20 uL) was transferred into 384-well NUNC plate pre-filled with 60 uL Quench buffer (80% organic and 20% water+0.1% FA) with internal standard. The plate was spun down at 4500 rpm for 20 mins, then 20 uL of supernatant was transferred to another Nunc plate prefilled with 80 uL of water. The samples were analyzed using Rapid fire.

CD73 [2] = target: T1, CD73; test: MDA-MB-231 Cell Based CD73 Activity Assay (DMEM); conditions: MDA-MB-231-GFP cells, DMEM medium with 10% human plasma, 200 uM AMP

T1 sequence (P21589 27-574): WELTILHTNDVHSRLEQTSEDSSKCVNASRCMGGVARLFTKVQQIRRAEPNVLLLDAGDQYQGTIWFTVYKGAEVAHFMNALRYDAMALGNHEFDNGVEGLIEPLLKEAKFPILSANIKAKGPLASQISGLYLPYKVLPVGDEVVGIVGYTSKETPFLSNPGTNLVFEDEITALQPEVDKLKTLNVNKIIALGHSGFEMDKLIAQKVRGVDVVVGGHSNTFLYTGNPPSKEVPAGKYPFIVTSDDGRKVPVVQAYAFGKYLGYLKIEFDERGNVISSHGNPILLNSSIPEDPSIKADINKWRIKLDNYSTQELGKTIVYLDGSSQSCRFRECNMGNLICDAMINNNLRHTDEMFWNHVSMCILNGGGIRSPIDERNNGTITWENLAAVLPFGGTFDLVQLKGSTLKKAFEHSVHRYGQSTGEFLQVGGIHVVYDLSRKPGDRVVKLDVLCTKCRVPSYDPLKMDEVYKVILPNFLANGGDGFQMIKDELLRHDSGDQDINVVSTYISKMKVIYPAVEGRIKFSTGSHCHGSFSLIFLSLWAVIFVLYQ

| IC50 (CD73 [1]) [nM] | EC50 (CD73 [2]) [nM] | Compound |
| --- | --- | --- |
| 8.61 | 26.9 | O=c1[nH]cc(-c2cc(N3C[C@@H](Oc4ccc(OC(F)F)cn4)C(F)(F)C3)c3nccn3n2)c(=O)[nH]1 [Example 332, (R)-5-(8-(4-((5-(difluoromethoxy)pyridin-2-yl)oxy)-3,3-difluoropyrrolidin-1-yl)imidazo[1,2-b]pyridazin-6-yl)pyrimidine-2,4(1H,3H)-dione] |
| 0.89 | 1.91 | O=c1[nH]cc(-c2cc(N3C[C@H](Oc4ccc(OC(F)F)cn4)C(F)(F)C3)c3nccn3n2)c(=O)[nH]1 [Example 333, (S)-5-(8-(4-((5-(difluoromethoxy)pyridin-2-yl)oxy)-3,3-difluoropyrrolidin-1-yl)imidazo[1,2-b]pyridazin-6-yl)pyrimidine-2,4(1H,3H)-dione] |
| 24.4 | 118 | O=c1[nH]cc(-c2cc(N3C[C@@H](Oc4ccc(OC(F)(F)F)cn4)C(F)(F)C3)c3nccn3n2)c(=O)[nH]1 [Example 334, (R)-5-(8-(3,3-difluoro-4-((5-(trifluoromethoxy)pyridin-2-yl)oxy)pyrrolidin-1-yl)imidazo[1,2-b]pyridazin-6-yl)pyrimidine-2,4(1H,3H)-dione] |
| 3.29 | 15.9 | O=c1[nH]cc(-c2cc(N3C[C@H](Oc4ccc(OC(F)(F)C(F)(F)F)cn4)C(F)(F)C3)c3nccn3n2)c(=O)[nH]1 [Example 337, (S)-5-(8-(3,3-difluoro-4-((5-(perfluoroethoxy)pyridin-2-yl)oxy)pyrrolidin-1-yl)imidazo[1,2-b]pyridazin-6-yl)pyrimidine-2,4(1H,3H)-dione] |
| 10.9 | 72.8 | N#Cc1ccc(O[C@@H]2CN(c3cc(-c4c[nH]c(=O)[nH]c4=O)nn4ccnc34)CC2(F)F)nc1 [Example 338, (R)-6-((1-(6-(2,4-dioxo-1,2,3,4-tetrahydropyrimidin-5-yl)imidazo[1,2-b]pyridazin-8-yl)-4,4-difluoropyrrolidin-3-yl)oxy)nicotinonitrile] |
| 0.91 | 2.6 | N#Cc1ccc(O[C@H]2CN(c3cc(-c4c[nH]c(=O)[nH]c4=O)nn4ccnc34)CC2(F)F)nc1 [Example 339, (S)-6-((1-(6-(2,4-dioxo-1,2,3,4-tetrahydropyrimidin-5-yl)imidazo[1,2-b]pyridazin-8-yl)-4,4-difluoropyrrolidin-3-yl)oxy)nicotinonitrile] |
| 0.43 | 0.53 | O=c1[nH]cc(-c2cc(N3C[C@H](Oc4cc(C(F)F)ccn4)C(F)(F)C3)c3nccn3n2)c(=O)[nH]1 [Example 341, (S)-5-(8-(4-((4-(difluoromethyl)pyridin-2-yl)oxy)-3,3-difluoropyrrolidin-1-yl)imidazo[1,2-b]pyridazin-6-yl)pyrimidine-2,4(1H,3H)-dione] |
| 1.4 | 3.82 | N#Cc1ccnc(O[C@H]2CN(c3cc(-c4c[nH]c(=O)[nH]c4=O)nn4ccnc34)CC2(F)F)c1 [Example 342, 2-[(3S)-1-[6-(2,4-dioxo-1H-pyrimidin-5-yl)imidazo[1,2-b]pyridazin-8-yl]-4,4-difluoro-pyrrolidin-3-yl]oxypyridine-4-carbonitrile] |
| 48.2 | 129 | O=c1[nH]cc(-c2cc(N3CC(OC(F)F)C4(CC4)C3)c3nccn3n2)c(=O)[nH]1 (centres unmarked) [Example 343, 5-[8-[7-(difluoromethoxy)-5-azaspiro[2.4]heptan-5-yl]imidazo[1,2-b]pyridazin-6-yl]-1H-pyrimidine-2,4-dione] |
| 4.39 | 11.9 | O=c1[nH]cc(-c2cc(N3CC[C@@H](OC(F)F)C3)c3nccn3n2)c(=O)[nH]1 [Example 347, (R)-5-(8-(3-(difluoromethoxy)pyrrolidin-1-yl)imidazo[1,2-b]pyridazin-6-yl)pyrimidine-2,4(1H,3H)-dione] |
| > 250 | 1000 | O=c1[nH]cc(-c2cc(N3C[C@@H]4[C@H](C3)[C@H]4C(F)(F)F)c3nccn3n2)c(=O)[nH]1 [Example 352, 5-(8-((1R,5S,6r)-6-(trifluoromethyl)-3-azabicyclo[3.1.0]hexan-3-yl)imidazo[1,2-b]pyridazin-6-yl)pyrimidine-2,4(1H,3H)-dione] |
| 69.6 | 109 | O=c1[nH]cc(-c2cc(N3CCC(C(F)(F)F)(C(F)(F)F)C3)c3nccn3n2)c(=O)[nH]1 [Example 353, 5-(8-(3,3-bis(trifluoromethyl)pyrrolidin-1-yl)imidazo[1,2-b]pyridazin-6-yl)pyrimidine-2,4(1H,3H)-dione] |
| 7.56 | 14.5 | O=c1[nH]cc(-c2cc(N3CC4CC4(F)C3)c3nccn3n2)c(=O)[nH]1 (centres unmarked) [Example 355, 5-(8-(1-fluoro-3-azabicyclo[3.1.0]hexan-3-yl)imidazo[1,2-b]pyridazin-6-yl)pyrimidine-2,4(1H,3H)-dione] |
| > 250 | 402 | O=c1[nH]cc(-c2cc(N3CC(F)(F)C4(CC4)C3)n3ncnc3n2)c(=O)[nH]1 [Example 357, 5-(7-(7,7-difluoro-5-azaspiro[2.4]heptan-5-yl)-[1,2,4]triazolo[1,5-a]pyrimidin-5-yl)pyrimidine-2,4(1H,3H)-dione] |
| 27.8 | 82.2 | O=c1[nH]cc(-c2cc(N3CC(F)(F)C(F)(F)C3)n3nccc3n2)c(=O)[nH]1 [Example 358, 5-(7-(3,3,4,4-tetrafluoropyrrolidin-1-yl)pyrazolo[1,5-a]pyrimidin-5-yl)pyrimidine-2,4(1H,3H)-dione] |
| 3.43 | 14.3 | O=c1[nH]cc(-c2cc([C@H]3C[C@@H]3c3ncc(Br)cn3)c3nccn3n2)c(=O)[nH]1 [Example 380, 5-(8-((1S,2S)-2-(5-bromopyrimidin-2-yl)cyclopropyl)imidazo[1,2-b]pyridazin-6-yl)pyrimidine-2,4(1H,3H)-dione] |

The next lines start with the compound.

| Compound | IC50 (CD73 [1]) [nM] | EC50 (CD73 [2]) [nM] |
| --- | --- | --- |
| O=c1[nH]cc(-c2cc(N3C[C@H](Oc4ccc(OC(F)(F)F)cn4)C(F)(F)C3)c3nccn3n2)c(=O)[nH]1 [Example 335, (S)-5-(8-(3,3-difluoro-4-((5-(trifluoromethoxy)pyridin-2-yl)oxy)pyrrolidin-1-yl)imidazo[1,2-b]pyridazin-6-yl)pyrimidine-2,4(1H,3H)-dione] | 2.8 | 6.77 |
| O=c1[nH]cc(-c2cc(N3C[C@@H](Oc4ccc(OC(F)(F)C(F)(F)F)cn4)C(F)(F)C3)c3nccn3n2)c(=O)[nH]1 [Example 336, (R)-5-(8-(3,3-difluoro-4-((5-(perfluoroethoxy)pyridin-2-yl)oxy)pyrrolidin-1-yl)imidazo[1,2-b]pyridazin-6-yl)pyrimidine-2,4(1H,3H)-dione] | 34.9 | > 250 |
| O=c1[nH]cc(-c2cc(N3CC(Oc4cnc(C(F)(F)F)cn4)C(F)(F)C3)c3nccn3n2)c(=O)[nH]1 (centres unmarked) [Example 340, 5-(8-(3,3-difluoro-4-((5-(trifluoromethyl)pyrazin-2-yl)oxy)pyrrolidin-1-yl)imidazo[1,2-b]pyridazin-6-yl)pyrimidine-2,4(1H,3H)-dione] | 1.48 | 19 |
| O=c1[nH]cc(-c2cc(N3CC(O)C4(CC4)C3)c3nccn3n2)c(=O)[nH]1 (centres unmarked) [Example 344, 5-[8-(7-hydroxy-5-azaspiro[2.4]heptan-5-yl)imidazo[1,2-b]pyridazin-6-yl]-1H-pyrimidine-2,4-dione] | 38.4 | 97 |
| O=c1[nH]cc(-c2cc(N3CC(Oc4ccc(C(F)(F)F)cn4)C4(CC4)C3)c3nccn3n2)c(=O)[nH]1 (centres unmarked) [Example 345, 5-[8-[7-[[5-(trifluoromethyl)-2-pyridyl]oxy]-5-azaspiro[2.4]heptan-5-yl]imidazo[1,2-b]pyridazin-6-yl]-1H-pyrimidine-2,4-dione] | 10.2 | 98 |
| O=c1[nH]cc(-c2cc(N3CC(c4ccccc4)C(F)(F)C3)c3nccn3n2)c(=O)[nH]1 (centres unmarked) [Example 346, 5-(8-(3,3-difluoro-4-phenylpyrrolidin-1-yl)imidazo[1,2-b]pyridazin-6-yl)pyrimidine-2,4(1H,3H)-dione] | 6.08 | 24.4 |
| O=c1[nH]cc(-c2cc(N3CC[C@H](OC(F)F)C3)c3nccn3n2)c(=O)[nH]1 [Example 348, (S)-5-(8-(3-(difluoromethoxy)pyrrolidin-1-yl)imidazo[1,2-b]pyridazin-6-yl)pyrimidine-2,4(1H,3H)-dione] | 54 | 121 |
| COC1CN(c2cc(-c3c[nH]c(=O)[nH]c3=O)nn3ccnc23)CC12CC2 (centres unmarked) [Example 349, 5-(8-(7-methoxy-5-azaspiro[2.4]heptan-5-yl)imidazo[1,2-b]pyridazin-6-yl)pyrimidine-2,4(1H,3H)-dione] | 148 | 124 |
| O=c1[nH]cc(-c2cc(N3CC(F)(F)C4(CC4)C3)n3nccc3n2)c(=O)[nH]1 [Example 350, 5-(7-(7,7-difluoro-5-azaspiro[2.4]heptan-5-yl)pyrazolo[1,5-a]pyrimidin-5-yl)pyrimidine-2,4(1H,3H)-dione] | 12 | 99.3 |
| O=c1[nH]cc(-c2cc(N3CC(F)(F)C(F)(F)C3)c3ncc(F)n3n2)c(=O)[nH]1 [Example 351, 5-(3-fluoro-8-(3,3,4,4-tetrafluoropyrrolidin-1-yl)imidazo[1,2-b]pyridazin-6-yl)pyrimidine-2,4(1H,3H)-dione] | 10.6 | 56.4 |
| N#CC12CC1CN(c1cc(-c3c[nH]c(=O)[nH]c3=O)nn3ccnc13)C2 (centres unmarked) [Example 354, 3-(6-(2,4-dioxo-1,2,3,4-tetrahydropyrimidin-5-yl)imidazo[1,2-b]pyridazin-8-yl)-3-azabicyclo[3.1.0]hexane-1-carbonitrile] | 90.8 | 401 |
| O=c1[nH]cc(-c2cc(N3CC(F)(F)C(F)(F)C3)n3ncnc3n2)c(=O)[nH]1 [Example 356, 5-(7-(3,3,4,4-tetrafluoropyrrolidin-1-yl)-[1,2,4]triazolo[1,5-a]pyrimidin-5-yl)pyrimidine-2,4(1H,3H)-dione] | > 250 | 916 |
